Experimental data as given in patent publication US20240350597A1, “PROTEASE INHIBITORS” (University College Dublin, priority 2023, published 2024).

System: SARS-CoV-2 (WT, D614G)
Assay type: cell-based
Details: 50 µM

alpha-1-antitrypsin [A1AT]
inhibition of SARS-CoV-2 replication / infection: 45%
